In paper PMC8555909, “Identification of CYP 2A6 inhibitors in an effort to mitigate the harmful effects of the phytochemical nicotine” (Journal of cancer metastasis and treatment, 2021):

Molecular target: T1, human CYP2A6 enzyme (cytochrome P450 2A6) (Homo sapiens, UniProt P11509)
T1 construct: purchased Life Technologies PV6140; host or cells: insect cells (baculosomes)
T1 sequence (P11509 1-494): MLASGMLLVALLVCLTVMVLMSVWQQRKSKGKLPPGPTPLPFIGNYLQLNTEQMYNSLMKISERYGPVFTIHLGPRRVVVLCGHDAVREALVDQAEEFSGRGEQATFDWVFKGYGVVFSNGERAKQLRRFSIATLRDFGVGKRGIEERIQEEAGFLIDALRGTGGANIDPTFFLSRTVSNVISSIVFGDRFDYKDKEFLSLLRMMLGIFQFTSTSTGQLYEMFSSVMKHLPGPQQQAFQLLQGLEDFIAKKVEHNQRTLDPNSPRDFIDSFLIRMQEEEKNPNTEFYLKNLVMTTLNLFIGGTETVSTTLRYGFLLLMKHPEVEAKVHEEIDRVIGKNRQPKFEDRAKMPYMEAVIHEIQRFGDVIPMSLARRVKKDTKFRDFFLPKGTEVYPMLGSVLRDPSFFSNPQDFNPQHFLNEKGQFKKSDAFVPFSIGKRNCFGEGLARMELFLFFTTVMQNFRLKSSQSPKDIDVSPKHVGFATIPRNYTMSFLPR
Test: P450 2A6 inhibition assay (Vivid CYP450 Screening Kit, baculosomes)
Format: biochemical
Conditions: for IC50 of P450 2A6 inhibition (in words): dose-response curve; for IC50: microsomes from insect cells expressing human CYP2A6, 10 min pre-incubation, 2 h reaction at room temperature, highest concentration in dose-response curves 40 μM, triplicates; for P450 2A6 inhibition activity (in words): screening at 10 μM followed by dose-response curve
Protocol: Cytochrome P450 2A6 (Cyp2A6) activity was determined using the Vivid CYP450 Screening Kit (Life Technologies, catalog #PV6140) according to the manufacturer’s instructions. Briefly, a master pre-mix containing baculosomes and regeneration system was prepared using 0.5× Vivid reaction buffer II. The test compounds were dissolved in dimethyl sulfoxide (DMSO) at a concentration of 100 mM. From the stock solutions, each compound was serially diluted in 0.5× Vivid reaction buffer II to make working stocks of 100 μM, 50 μM, 25 μM and so on up to 10 dilutions. It is essential to dilute the DMSO at least 1000-fold when making the working dilutions to prevent its interference with the enzyme activity. An initial high-throughput screening was performed at 10 μM concentration for each compound. For the dose-response curve determination, in a 96-well plate, 40 μL of the diluted solutions of each test compound were added to each well, followed by 50 μl of the master pre-mix, before incubation for 10 min at room temperature. A 10× mixture of Vivid substrate (reconstituted with acetonitrile) and NADP^+ was then prepared. At the end of the incubation period, 10 μL of this solution was added to each well to start the reaction. After 2 hours of incubation in the dark at room temperature, the plate was read at 415 nm on a plate reader (Synergy H1, Biotek). For a positive inhibition control, tranylcypromine (Sigma-Aldrich, cat. #P8511) was used at a final concentration of 100 μM. For a negative (no inhibitor) control, a 1:1000 dilution of pure DMSO in 0.5× Vivid reaction buffer was used. Each concentration in the dose-response curve was set up in triplicates, and each data point was the average of triplicate wells. The % inhibition was calculated using the following equation. %Inhibition=(1−X−B/A−B)*100 where X is the fluorescence observed in presence of the test compound; A is the fluorescence observed in the absence of an inhibitor (no inhibitor control); and B is the fluorescence observed for the positive control. For graphing purposes, percent inhibition vs. anti-log[drug concentration] was plotted. A logistic sigmoidal model was used to fit the data and obtain IC50 values using Graphpad Prism software.
The syntheses of compounds 1 to 7 [Figure 1] were accomplished using the synthetic Schemes 1 and 2. […] Nicotine-mimicking compounds containing imidazole or methyl substituted imidazole side chains with varied sizes of 1–3 carbon alkyl spacers at position 3 of the pyridine ring were synthesized using Scheme 1 (compounds 1, 4 and 7). Based on our previous findings that acetylenic substituents can interact with the P450 active site amino acids and lead to mechanism-based inhibition, triple bond in the form of propargyl ether was incorporated in a second series of compounds at positions 2, 3 or 4 of the pyridine ring as an ether linkage (compounds 3, 6 and 2, respectively). Positions 2 and 4 were used to investigate whether substituted compounds at those positions would show a difference in their inhibition activities compared to the 3-position substituted compound. A longer spacer in between the propargyl ether and the 4-position of the pyridine ring was introduced to investigate whether a greater flexibility in the positioning of the key functional groups (pyridine ring and the alkyne moiety) in the binding site would be achieved. The Vivid CYP450 Screening Kit (Life Technologies, catalog #PV6140) was used for the P450 2A6 inhibition assays. An initial high-throughput screening was performed at a 10 μM concentration followed by a dose-response curve determination.
The inhibition studies on our compounds were performed using a Vivid CYP2A6 Kit (Life Technologies, catalog #PV6140). This kit uses microsomes from insect cells stably expressing human CYP2A6 enzyme. […]

Compound	IC50 of P450 2A6 inhibition (in words)	IC50	P450 2A6 inhibition activity (in words)
Cc1nccn1CCCc1cccnc1 [Compound 1]	single digit micromolar	9.03 µM	
C#CCOc1ccncc1 [Compound 2, 4-(prop-2-yn-1-yloxy)pyridine]		> 40 µM	much lower inhibition
C#CCOc1ccccn1 [Compound 3, 2-(prop-2-yn-1-yloxy)pyridine]			did not inhibit
c1cncc(Cn2ccnc2)c1 [Compound 4, 3-((1H-imidazol-1-yl)methyl)pyridine]	single digit micromolar	5.02 µM	
C#CCOCCCc1ccncc1 [Compound 5, 4-(3-(prop-2-yn-1-yloxy)propyl)pyridine]		> 40 µM	moderate inhibition activity
C#CCOCc1cccnc1 [Compound 6, 3-((prop-2-yn-1-yloxy)methyl)pyridine]	single digit micromolar	1 µM	
Cc1nccn1Cc1cccnc1 [Compound 7, 3-[(2-methyl-1H-imidazol-1-yl)methyl] pyridine]		> 40 µM	moderate inhibition activity
